In ChEMBL document CHEMBL1153282, “N-substituted 2'-(aminoaryl)benzothiazoles as kinase inhibitors: hit identification and scaffold hopping” (Bioorg Med Chem Lett, 2009):
pIC50: −log10 of the molar value.

What was measured:
[1] = molecular target: Platelet-derived growth factor receptor beta (Homo sapiens, UniProt P09619); experiment: Inhibition of PDGFRbeta by virtual HTS assay
[2] = molecular target: Vascular endothelial growth factor receptor 2 (Homo sapiens, UniProt P35968); experiment: Inhibition of VEGFR2 by virtual HTS assay
Angiopoietin-1 receptor = Angiopoietin-1 receptor (Homo sapiens, UniProt Q02763); experiment: Inhibition of TIE2 by virtual HTS assay
Insulin receptor = Insulin receptor (Homo sapiens, UniProt P06213); experiment: Inhibition of insulin receptor by virtual HTS assay
Ephrin type-B receptor 4 = molecular target: T1, Ephrin type-B receptor 4 (Homo sapiens, UniProt P54760); experiment: Inhibition of EphB4 by virtual HTS assay
T1 sequence (P54760 whole entry): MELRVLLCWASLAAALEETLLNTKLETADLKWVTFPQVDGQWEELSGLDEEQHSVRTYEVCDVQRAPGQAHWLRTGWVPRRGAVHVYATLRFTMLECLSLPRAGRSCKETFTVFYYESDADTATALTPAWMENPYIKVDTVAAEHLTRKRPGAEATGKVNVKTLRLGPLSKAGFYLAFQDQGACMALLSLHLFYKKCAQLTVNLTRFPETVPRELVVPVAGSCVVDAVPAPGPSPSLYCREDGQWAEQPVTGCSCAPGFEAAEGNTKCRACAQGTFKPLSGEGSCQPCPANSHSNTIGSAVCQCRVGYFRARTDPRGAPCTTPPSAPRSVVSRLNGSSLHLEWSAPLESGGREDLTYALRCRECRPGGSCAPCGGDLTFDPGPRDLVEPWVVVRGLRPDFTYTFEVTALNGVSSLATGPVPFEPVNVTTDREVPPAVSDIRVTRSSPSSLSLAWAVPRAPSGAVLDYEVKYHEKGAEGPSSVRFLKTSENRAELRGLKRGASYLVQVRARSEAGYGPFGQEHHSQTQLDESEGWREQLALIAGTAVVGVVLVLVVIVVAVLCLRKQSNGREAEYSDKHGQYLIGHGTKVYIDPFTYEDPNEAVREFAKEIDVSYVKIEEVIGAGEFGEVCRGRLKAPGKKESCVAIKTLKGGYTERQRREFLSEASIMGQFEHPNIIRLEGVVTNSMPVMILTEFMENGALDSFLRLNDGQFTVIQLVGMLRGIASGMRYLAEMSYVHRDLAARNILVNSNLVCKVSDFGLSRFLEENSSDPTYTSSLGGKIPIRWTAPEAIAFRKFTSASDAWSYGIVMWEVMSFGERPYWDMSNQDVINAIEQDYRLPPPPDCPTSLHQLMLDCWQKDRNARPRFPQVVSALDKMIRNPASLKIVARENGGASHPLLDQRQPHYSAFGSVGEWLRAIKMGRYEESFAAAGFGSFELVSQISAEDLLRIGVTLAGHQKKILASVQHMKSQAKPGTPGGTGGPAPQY

Aurora kinase B = Aurora kinase B (Homo sapiens, UniProt Q96GD4); experiment: Inhibition of Aurora B by virtual HTS assay
Chain of Aurora kinase B (Q96GD4 whole entry): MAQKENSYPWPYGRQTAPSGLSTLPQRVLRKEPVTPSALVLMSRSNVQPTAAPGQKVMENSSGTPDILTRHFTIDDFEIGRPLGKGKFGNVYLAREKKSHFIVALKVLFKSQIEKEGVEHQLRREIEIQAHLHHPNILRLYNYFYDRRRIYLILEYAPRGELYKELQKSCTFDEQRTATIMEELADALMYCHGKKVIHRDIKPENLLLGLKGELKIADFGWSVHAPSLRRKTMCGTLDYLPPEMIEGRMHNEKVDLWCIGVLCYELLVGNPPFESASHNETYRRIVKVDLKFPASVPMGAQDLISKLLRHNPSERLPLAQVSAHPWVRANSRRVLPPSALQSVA

[3] = molecular target: Vascular endothelial growth factor receptor 3 (Homo sapiens, UniProt P35916)
Chain of Vascular endothelial growth factor receptor 3 (P35916 whole entry): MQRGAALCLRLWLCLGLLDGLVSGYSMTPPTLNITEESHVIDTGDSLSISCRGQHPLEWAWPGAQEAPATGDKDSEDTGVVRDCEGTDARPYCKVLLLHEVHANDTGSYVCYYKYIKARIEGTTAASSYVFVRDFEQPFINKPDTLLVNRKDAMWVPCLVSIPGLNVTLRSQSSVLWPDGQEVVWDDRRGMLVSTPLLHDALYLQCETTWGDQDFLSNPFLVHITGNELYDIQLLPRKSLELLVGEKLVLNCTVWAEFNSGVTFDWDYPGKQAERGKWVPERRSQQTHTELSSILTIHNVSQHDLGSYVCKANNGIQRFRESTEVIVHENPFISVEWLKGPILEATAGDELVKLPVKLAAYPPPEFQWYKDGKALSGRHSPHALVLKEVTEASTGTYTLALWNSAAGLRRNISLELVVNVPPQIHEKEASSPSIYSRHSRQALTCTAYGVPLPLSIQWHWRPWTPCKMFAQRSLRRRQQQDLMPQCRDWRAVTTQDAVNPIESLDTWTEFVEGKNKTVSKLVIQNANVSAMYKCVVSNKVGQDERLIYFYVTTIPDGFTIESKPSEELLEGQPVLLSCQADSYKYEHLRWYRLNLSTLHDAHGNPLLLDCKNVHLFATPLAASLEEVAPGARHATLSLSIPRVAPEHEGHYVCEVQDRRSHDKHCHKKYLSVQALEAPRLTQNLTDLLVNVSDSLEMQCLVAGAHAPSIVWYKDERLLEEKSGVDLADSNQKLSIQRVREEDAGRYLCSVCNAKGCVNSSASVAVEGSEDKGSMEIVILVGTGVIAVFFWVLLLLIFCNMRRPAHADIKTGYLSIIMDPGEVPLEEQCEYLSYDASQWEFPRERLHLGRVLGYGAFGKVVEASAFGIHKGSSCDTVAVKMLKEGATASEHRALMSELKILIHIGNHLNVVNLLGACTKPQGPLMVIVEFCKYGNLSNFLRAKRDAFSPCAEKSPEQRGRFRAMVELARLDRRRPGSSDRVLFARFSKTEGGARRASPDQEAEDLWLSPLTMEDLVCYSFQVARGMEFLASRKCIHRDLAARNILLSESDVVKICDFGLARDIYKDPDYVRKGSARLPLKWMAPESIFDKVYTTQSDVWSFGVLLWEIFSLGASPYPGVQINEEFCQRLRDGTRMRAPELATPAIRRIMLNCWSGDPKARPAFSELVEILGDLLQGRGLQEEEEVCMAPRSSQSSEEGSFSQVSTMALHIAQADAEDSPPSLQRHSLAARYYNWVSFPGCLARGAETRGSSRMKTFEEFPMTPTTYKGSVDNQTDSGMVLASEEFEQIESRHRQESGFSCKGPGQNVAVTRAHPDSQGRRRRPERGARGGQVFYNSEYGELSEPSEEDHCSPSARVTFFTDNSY
Description: Inhibition of VEGFR3 by virtual HTS assay

Aurora kinase A = molecular target: T2, Aurora kinase A (Homo sapiens, UniProt O14965); experiment: Inhibition of Aurora A by virtual HTS assay
T2 sequence (O14965 whole entry): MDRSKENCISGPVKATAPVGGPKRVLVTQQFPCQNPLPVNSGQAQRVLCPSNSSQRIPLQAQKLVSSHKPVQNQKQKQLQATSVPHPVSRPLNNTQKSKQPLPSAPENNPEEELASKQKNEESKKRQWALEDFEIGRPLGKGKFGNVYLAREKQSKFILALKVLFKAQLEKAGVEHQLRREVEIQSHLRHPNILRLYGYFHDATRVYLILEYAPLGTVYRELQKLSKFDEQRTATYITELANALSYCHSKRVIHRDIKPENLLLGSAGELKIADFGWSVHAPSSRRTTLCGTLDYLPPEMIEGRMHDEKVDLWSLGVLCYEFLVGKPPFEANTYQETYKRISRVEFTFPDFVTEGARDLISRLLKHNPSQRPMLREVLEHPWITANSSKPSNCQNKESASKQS

[4] = molecular target: Epidermal growth factor receptor (Homo sapiens, UniProt P00533); experiment: Inhibition of EGFR by virtual HTS assay
[5] = molecular target: Proto-oncogene tyrosine-protein kinase Src (Homo sapiens, UniProt P12931); experiment: Inhibition of Src by virtual HTS assay
Chain of Proto-oncogene tyrosine-protein kinase Src (P12931 2-536 limits assumed): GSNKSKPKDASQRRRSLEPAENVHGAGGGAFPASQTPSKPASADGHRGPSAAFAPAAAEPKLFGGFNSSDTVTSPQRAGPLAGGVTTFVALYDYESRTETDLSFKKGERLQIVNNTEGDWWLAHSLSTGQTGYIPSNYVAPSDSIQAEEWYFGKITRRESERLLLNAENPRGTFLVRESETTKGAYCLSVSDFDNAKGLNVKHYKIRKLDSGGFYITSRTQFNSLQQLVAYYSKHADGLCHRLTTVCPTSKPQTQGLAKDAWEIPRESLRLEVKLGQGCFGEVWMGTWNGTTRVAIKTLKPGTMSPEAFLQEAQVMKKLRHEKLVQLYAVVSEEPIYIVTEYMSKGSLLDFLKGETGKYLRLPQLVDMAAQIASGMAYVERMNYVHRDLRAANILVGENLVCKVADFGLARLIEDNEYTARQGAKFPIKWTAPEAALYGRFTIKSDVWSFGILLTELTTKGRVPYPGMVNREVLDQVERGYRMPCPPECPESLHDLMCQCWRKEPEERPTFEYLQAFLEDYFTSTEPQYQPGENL

Focal adhesion kinase 1 = Focal adhesion kinase 1 (Homo sapiens, UniProt Q05397); experiment: Inhibition of FAK by virtual HTS assay
[6] = molecular target: Cyclin-dependent kinase 2 (Homo sapiens, UniProt P24941); experiment: Inhibition of CDK2 by virtual HTS assay
[7] = molecular target: Insulin-like growth factor 1 receptor (Homo sapiens, UniProt P08069); experiment: Inhibition of IGF1R by virtual HTS assay
Chain of Insulin-like growth factor 1 receptor (P08069 31-736 limits assumed): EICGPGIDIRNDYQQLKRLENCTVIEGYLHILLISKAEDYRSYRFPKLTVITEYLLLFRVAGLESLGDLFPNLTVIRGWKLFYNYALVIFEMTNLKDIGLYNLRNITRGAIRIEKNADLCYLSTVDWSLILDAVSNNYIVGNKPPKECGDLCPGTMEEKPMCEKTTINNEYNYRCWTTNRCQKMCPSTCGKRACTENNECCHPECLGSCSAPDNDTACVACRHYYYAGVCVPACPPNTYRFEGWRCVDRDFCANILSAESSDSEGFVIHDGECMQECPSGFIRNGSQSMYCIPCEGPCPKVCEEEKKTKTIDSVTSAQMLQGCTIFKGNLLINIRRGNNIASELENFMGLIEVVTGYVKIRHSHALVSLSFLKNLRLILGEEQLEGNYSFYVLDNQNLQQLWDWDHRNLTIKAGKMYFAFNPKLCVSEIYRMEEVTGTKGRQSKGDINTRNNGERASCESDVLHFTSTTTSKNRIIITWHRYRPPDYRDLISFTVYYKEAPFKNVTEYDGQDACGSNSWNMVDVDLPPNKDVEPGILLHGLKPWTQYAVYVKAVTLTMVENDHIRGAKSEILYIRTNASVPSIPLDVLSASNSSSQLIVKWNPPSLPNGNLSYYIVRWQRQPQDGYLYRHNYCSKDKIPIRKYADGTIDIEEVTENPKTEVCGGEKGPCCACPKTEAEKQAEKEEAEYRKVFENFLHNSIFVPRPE
Chain of Insulin-like growth factor 1 receptor (P08069 741-1367 limits assumed): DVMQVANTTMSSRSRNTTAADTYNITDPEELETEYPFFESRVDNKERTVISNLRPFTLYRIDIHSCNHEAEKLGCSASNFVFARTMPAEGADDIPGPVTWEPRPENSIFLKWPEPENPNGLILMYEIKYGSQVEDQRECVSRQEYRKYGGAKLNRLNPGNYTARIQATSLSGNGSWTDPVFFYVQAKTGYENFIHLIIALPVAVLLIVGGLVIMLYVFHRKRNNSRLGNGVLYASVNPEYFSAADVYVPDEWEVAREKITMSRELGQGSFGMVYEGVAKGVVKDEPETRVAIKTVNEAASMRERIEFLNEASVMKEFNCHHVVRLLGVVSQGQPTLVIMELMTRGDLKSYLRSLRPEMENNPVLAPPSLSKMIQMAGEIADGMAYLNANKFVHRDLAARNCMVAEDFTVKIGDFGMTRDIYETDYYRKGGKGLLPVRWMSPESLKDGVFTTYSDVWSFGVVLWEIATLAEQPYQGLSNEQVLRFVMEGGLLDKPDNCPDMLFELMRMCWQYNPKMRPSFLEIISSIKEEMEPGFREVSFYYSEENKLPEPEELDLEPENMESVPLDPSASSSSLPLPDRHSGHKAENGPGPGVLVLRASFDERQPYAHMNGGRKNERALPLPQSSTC

[8] = molecular target: Cyclin-dependent kinase 4 (Homo sapiens, UniProt P11802); experiment: Inhibition of CDK4 by virtual HTS assay
Chain of Cyclin-dependent kinase 4 (P11802 whole entry): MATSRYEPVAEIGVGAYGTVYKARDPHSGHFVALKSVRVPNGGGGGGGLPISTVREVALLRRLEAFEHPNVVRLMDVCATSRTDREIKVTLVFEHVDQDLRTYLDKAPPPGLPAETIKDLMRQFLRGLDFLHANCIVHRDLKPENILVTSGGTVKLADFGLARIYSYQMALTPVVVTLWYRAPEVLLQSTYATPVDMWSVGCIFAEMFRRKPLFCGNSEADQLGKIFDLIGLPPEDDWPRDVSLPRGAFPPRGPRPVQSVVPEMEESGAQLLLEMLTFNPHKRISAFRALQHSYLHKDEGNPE

Chain of Platelet-derived growth factor receptor beta (P09619 whole entry): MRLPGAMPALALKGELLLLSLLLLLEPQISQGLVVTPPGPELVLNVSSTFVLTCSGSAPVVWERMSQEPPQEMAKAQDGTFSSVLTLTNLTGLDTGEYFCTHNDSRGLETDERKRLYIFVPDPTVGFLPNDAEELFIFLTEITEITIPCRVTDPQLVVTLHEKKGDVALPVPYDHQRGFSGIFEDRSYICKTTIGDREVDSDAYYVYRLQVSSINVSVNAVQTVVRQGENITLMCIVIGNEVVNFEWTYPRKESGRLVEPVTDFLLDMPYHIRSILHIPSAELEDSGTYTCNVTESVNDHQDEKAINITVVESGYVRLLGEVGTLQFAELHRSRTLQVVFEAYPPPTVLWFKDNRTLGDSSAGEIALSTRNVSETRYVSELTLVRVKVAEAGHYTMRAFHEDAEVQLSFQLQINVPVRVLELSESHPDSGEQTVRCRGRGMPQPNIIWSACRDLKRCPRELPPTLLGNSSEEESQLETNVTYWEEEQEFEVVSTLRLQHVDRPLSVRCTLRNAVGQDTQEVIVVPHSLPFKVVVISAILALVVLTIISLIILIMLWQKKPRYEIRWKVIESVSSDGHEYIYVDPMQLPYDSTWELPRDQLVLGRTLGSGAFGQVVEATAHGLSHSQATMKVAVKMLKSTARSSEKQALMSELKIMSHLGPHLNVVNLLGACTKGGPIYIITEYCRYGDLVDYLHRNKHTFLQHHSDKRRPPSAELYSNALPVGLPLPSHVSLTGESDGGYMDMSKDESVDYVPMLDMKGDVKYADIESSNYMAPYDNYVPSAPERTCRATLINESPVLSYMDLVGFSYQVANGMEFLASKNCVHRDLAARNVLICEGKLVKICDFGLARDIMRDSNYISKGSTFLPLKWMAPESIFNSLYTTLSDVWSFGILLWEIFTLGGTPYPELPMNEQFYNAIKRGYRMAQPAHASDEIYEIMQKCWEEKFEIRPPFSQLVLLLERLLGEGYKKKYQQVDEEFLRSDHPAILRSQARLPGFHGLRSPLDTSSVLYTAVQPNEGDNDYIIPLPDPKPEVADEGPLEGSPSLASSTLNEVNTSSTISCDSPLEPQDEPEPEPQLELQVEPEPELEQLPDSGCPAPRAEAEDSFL

Compound | pIC50 [1] | pIC50 [2] | pIC50 (Angiopoietin-1 receptor) | pIC50 (Insulin receptor) | pIC50 (Ephrin type-B receptor 4) | pIC50 (Aurora kinase B) | pIC50 [3] | pIC50 (Aurora kinase A) | pIC50 [4] | pIC50 [5] | pIC50 (Focal adhesion kinase 1) | pIC50 [6] | pIC50 [7] | pIC50 [8]
COc1cc2ncnc(Nc3ccc(F)c(Cl)c3)c2cc1OC | 5.52 | 6.29 | 5.08 | 5.59 | 6.32 | 5.13 | 5.62 | 5.19 |  |  |  |  |  | 
O=C(NC(=S)Nc1ccc(O)c(-c2nc3ccccc3s2)c1)c1ccc([N+](=O)[O-])cc1 | 6.00 | 5.52 | 5.52 |  | 6.21 |  | 6.00 |  | 6.55 | 6.72 | 6.05 | 6.15 | 6.51 | 
Cc1cc2c(Nc3ccc(-c4nc5ccccc5s4)cc3)ncnc2cc1Cl |  | 6.00 | < 5.00 | < 5.00 | < 5.00 | < 5.00 |  | 5.57 | < 5.00 | 6.52 |  |  | 5.48 | 
Fc1cc(-c2nc3ccccc3s2)ccc1Nc1ncnc2cc(Cl)ccc12 |  | 6.10 | 6.00 | < 5.00 | 6.00 | 6.29 |  | < 5.00 | < 5.00 | 6.15 |  |  | 5.96 | 
COc1cc2nc(Nc3cc(C)n[nH]3)nc(Nc3ccc(-c4nc5ccccc5s4)cc3)c2cc1OC |  | < 5.00 | < 5.00 | 5.67 | 5.48 | < 5.00 |  | 5.22 | < 5.00 | 5.52 |  |  | 5.78 | 
Clc1ccc2c(Nc3ccc(-c4nc5ccccc5s4)cc3)ccnc2c1 |  | 6.19 | 5.15 | 5.57 | 5.85 | 6.12 |  | 5.24 | 5.28 | 6.20 |  |  | 6.07 | 
COc1cc2ncnc(Nc3ccc(N4Cc5ccccc5C4)cc3)c2cc1OC |  |  |  | 5.10 |  | 6.04 |  | 5.28 | 5.80 |  |  |  | 5.12 | 5.18
Cc1cc(Nc2ccnc(Nc3cccc(-c4nc5ccccc5s4)c3)n2)n[nH]1 | < 5.00 | 5.12 | < 5.00 | 5.80 | < 5.00 | 5.70 | 5.60 | 6.80 | 5.72 | 6.72 |  |  | 7.00 | 
